Reference: the NIST ThermoML archive (doi:10.1016/j.tca.2015.06.017)

Test: xn = mol fraction of the nth substance listed
Conditions: Liquid, Vibrating tube method

CC(C)(C)Cl [2-chloro-2-methylpropane] + CCCCCCC
mass density [kg/m3]
Conditions	303.15 K	313.15 K	323.15 K
100 kPa, x2 = 0.0554	818.78	806.66	794.33
100 kPa, x2 = 0.1017	809.14	797.28	785.21
100 kPa, x2 = 0.2004	789.72	778.36	766.79
100 kPa, x2 = 0.3016	771.27	760.35	749.26
100 kPa, x2 = 0.4097	753.07	742.58	731.93
100 kPa, x2 = 0.498	739.29	729.11	718.79
100 kPa, x2 = 0.5983	724.71	714.88	704.9
100 kPa, x2 = 0.7017	710.79	701.3	691.67
100 kPa, x2 = 0.7995	698.55	689.36	680.04
100 kPa, x2 = 0.9032	686.4	677.52	668.52
100 kPa, x2 = 0.9482	681.35	672.6	663.72
2000 kPa, x2 = 0.0554	821.47	809.52	797.48
2000 kPa, x2 = 0.1017	811.82	800.05	788.27
2000 kPa, x2 = 0.2004	792.22	781	769.77
2000 kPa, x2 = 0.3016	773.66	763.03	752.1
2000 kPa, x2 = 0.4097	755.51	745.07	734.59
2000 kPa, x2 = 0.498	741.69	731.68	721.4
2000 kPa, x2 = 0.5983	727.08	717.4	707.53
2000 kPa, x2 = 0.7017	713.01	703.64	694.11
2000 kPa, x2 = 0.7995	700.74	691.69	682.44
2000 kPa, x2 = 0.9032	688.51	679.76	670.78
2000 kPa, x2 = 0.9482	683.42	674.8	665.93
5000 kPa, x2 = 0.0554	825.59	813.98	802.32
5000 kPa, x2 = 0.1017	815.8	804.42	793.03
5000 kPa, x2 = 0.2004	796.16	785.28	774.28
5000 kPa, x2 = 0.3016	777.4	767.03	756.52
5000 kPa, x2 = 0.4097	759.02	749.04	738.91
5000 kPa, x2 = 0.498	745.08	735.25	725.49
5000 kPa, x2 = 0.5983	730.47	720.98	711.44
5000 kPa, x2 = 0.7017	716.37	707.1	697.95
5000 kPa, x2 = 0.7995	703.86	695.02	686.17
5000 kPa, x2 = 0.9032	691.56	682.92	674.4
5000 kPa, x2 = 0.9482	686.48	677.95	669.52
7000 kPa, x2 = 0.0554	828.15	816.75	805.4
7000 kPa, x2 = 0.1017	818.38	807.19	796.06
7000 kPa, x2 = 0.2004	798.56	787.92	777.25
7000 kPa, x2 = 0.3016	779.88	769.57	759.21
7000 kPa, x2 = 0.4097	761.39	751.4	741.54
7000 kPa, x2 = 0.498	747.28	737.68	728.22
7000 kPa, x2 = 0.5983	732.58	723.34	714.07
7000 kPa, x2 = 0.7017	718.4	709.4	700.51
7000 kPa, x2 = 0.7995	705.86	697.26	688.53
7000 kPa, x2 = 0.9032	693.5	685.15	676.71
7000 kPa, x2 = 0.9482	688.38	680.11	671.83
10000 kPa, x2 = 0.0554	832	820.74	809.88
10000 kPa, x2 = 0.1017	822.04	811.13	800.36
10000 kPa, x2 = 0.2004	802.32	791.72	781.49
10000 kPa, x2 = 0.3016	783.29	773.41	763.36
10000 kPa, x2 = 0.4097	764.7	754.97	745.37
10000 kPa, x2 = 0.498	750.6	741.18	731.85
10000 kPa, x2 = 0.5983	735.66	726.57	717.55
10000 kPa, x2 = 0.7017	721.43	712.75	703.96
10000 kPa, x2 = 0.7995	708.91	700.32	691.76
10000 kPa, x2 = 0.9032	696.4	688.14	679.93
10000 kPa, x2 = 0.9482	691.28	683.1	674.96
20000 kPa, x2 = 0.0554	843.57	833.07	823.12
20000 kPa, x2 = 0.1017	833.51	823.38	813.35
20000 kPa, x2 = 0.2004	813.29	803.53	794.06
20000 kPa, x2 = 0.3016	793.94	784.77	775.49
20000 kPa, x2 = 0.4097	774.96	766.04	757.06
20000 kPa, x2 = 0.498	760.6	751.92	743.41
20000 kPa, x2 = 0.5983	745.27	737.01	728.54
20000 kPa, x2 = 0.7017	730.77	722.7	714.57
20000 kPa, x2 = 0.7995	717.92	709.98	702.11
20000 kPa, x2 = 0.9032	705.2	697.53	689.93
20000 kPa, x2 = 0.9482	699.94	692.28	684.86
30000 kPa, x2 = 0.0554	853.99	844.1	834.6
30000 kPa, x2 = 0.1017	843.73	834.2	824.82
30000 kPa, x2 = 0.2004	823.05	814.01	805.07
30000 kPa, x2 = 0.3016	803.47	794.87	786.11
30000 kPa, x2 = 0.4097	784.21	775.79	767.3
30000 kPa, x2 = 0.498	769.56	761.41	753.1
30000 kPa, x2 = 0.5983	753.98	746.13	738.15
30000 kPa, x2 = 0.7017	739.18	731.52	723.78
30000 kPa, x2 = 0.7995	726.07	718.59	711.07
30000 kPa, x2 = 0.9032	713.06	705.89	698.64
30000 kPa, x2 = 0.9482	707.83	700.51	693.47
40000 kPa, x2 = 0.0554	863.35	854.03	844.99
40000 kPa, x2 = 0.1017	852.88	843.96	835.05
40000 kPa, x2 = 0.2004	832.1	823.46	814.92
40000 kPa, x2 = 0.3016	812.13	804.15	795.67
40000 kPa, x2 = 0.4097	792.62	784.83	776.64
40000 kPa, x2 = 0.498	777.76	770.02	762.18
40000 kPa, x2 = 0.5983	761.89	754.48	746.92
40000 kPa, x2 = 0.7017	746.9	739.67	732.28
40000 kPa, x2 = 0.7995	733.47	726.54	719.25
40000 kPa, x2 = 0.9032	720.32	713.51	706.58
40000 kPa, x2 = 0.9482	714.92	708.05	701.31
50000 kPa, x2 = 0.0554	871.81	862.97	854.39
50000 kPa, x2 = 0.1017	861.28	852.84	844.39
50000 kPa, x2 = 0.2004	840.18	832.15	823.81
50000 kPa, x2 = 0.3016	820.14	812.43	804.37
50000 kPa, x2 = 0.4097	800.42	792.76	785.03
50000 kPa, x2 = 0.498	785.33	777.91	770.31
50000 kPa, x2 = 0.5983	769.3	762.19	754.82
50000 kPa, x2 = 0.7017	753.99	747.09	739.94
50000 kPa, x2 = 0.7995	740.47	733.8	726.85
50000 kPa, x2 = 0.9032	727.09	720.62	713.88
50000 kPa, x2 = 0.9482	721.65	715.12	708.52
60000 kPa, x2 = 0.0554	879.84	871.31	863.07
60000 kPa, x2 = 0.1017	869.24	861.07	852.83
60000 kPa, x2 = 0.2004	847.92	840.18	832.16
60000 kPa, x2 = 0.3016	827.68	820.2	812.47
60000 kPa, x2 = 0.4097	807.57	800.35	792.82
60000 kPa, x2 = 0.498	792.31	785.26	778.02
60000 kPa, x2 = 0.5983	776.11	769.28	762.27
60000 kPa, x2 = 0.7017	760.58	753.92	747.09
60000 kPa, x2 = 0.7995	746.99	740.45	733.8
60000 kPa, x2 = 0.9032	733.41	727.14	720.67
60000 kPa, x2 = 0.9482	727.85	721.6	715.25
65000 kPa, x2 = 0.0554	883.64	875.25	867.24
65000 kPa, x2 = 0.1017	872.96	864.95	856.84
65000 kPa, x2 = 0.2004	851.56	843.84	836.1
65000 kPa, x2 = 0.3016	831.16	823.81	816.3
65000 kPa, x2 = 0.4097	810.96	803.85	796.58
65000 kPa, x2 = 0.498	795.68	788.68	781.6
65000 kPa, x2 = 0.5983	779.38	772.62	765.81
65000 kPa, x2 = 0.7017	763.77	757.22	750.52
65000 kPa, x2 = 0.7995	749.98	743.57	737.12
65000 kPa, x2 = 0.9032	736.38	730.17	723.9
65000 kPa, x2 = 0.9482	730.82	724.57	718.48
